Laboratory results reported in US9850256B2, “Antibacterial basic biaromatic derivatives with aminoalkoxy substitution” (priority 2014, dated 2017).
In brackets after ≈: the same amount, converted by molar mass.

Legend:
Test in all cases: Bacterial growth minimal inhibitory concentration (microdilution, cation-adjusted Mueller-Hinton Broth)
S. aureus A798 = type: cell-based, Staphylococcus aureus; details: Staphylococcus aureus, A798; multiply-resistant strain (methicillin- and quinolone-resistant)
In short: (§1)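 Broth microdilution in cation-adjusted Mueller-Hinton Broth per CLSI M7-A7; MICs in mg/L. S. aureus A798 is methicillin- and quinolone-resistant, K. pneumoniae T6474 penicillin-, cephalosporin- and quinolone-resistant; E. coli ATCC25922 and P. aeruginosa ATCC 27853 are quinolone-sensitive.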

E. coli ATCC25922 = type: cell-based; details: Escherichia coli, ATCC25922; quinolone-sensitive strain
In short: as §1

K. pneumoniae T6474 = type: cell-based, Klebsiella pneumoniae; details: Klebsiella pneumoniae, T6474; multiply-resistant strain (penicillin-, cephalosporin- and quinolone-resistant)
In short: as §1

P. aeruginosa ATCC 27853 = type: cell-based, Pseudomonas aeruginosa; details: Pseudomonas aeruginosa, ATCC27853; quinolone-sensitive strain
In short: as §1

Compound	MIC (S. aureus A798) [µg/mL]	MIC (E. coli ATCC25922) [µg/mL]	MIC (K. pneumoniae T6474) [µg/mL]	MIC (P. aeruginosa ATCC 27853) [µg/mL]
NCCOc1cncc(-c2cccc(CNCC[C@H]3CN(c4ccc5c(n4)NC(=O)CO5)C(=O)O3)c2)c1 [Example 11, 6-[(S)-5-(2-{3-[5-(2-amino-ethoxy)-pyridin-3-yl]-benzylamino}-ethyl)-2-oxo-oxazolidin-3-yl]-4H-pyrido[3,2-b][1,4]oxazin-3-one]	2 (≈ 3.96 µM)	2 (≈ 3.96 µM)	4 (≈ 7.93 µM)	1 (≈ 1.98 µM)
C[C@H]1NC[C@H]1Oc1cccc(-c2cccc(CNCC[C@H]3CN(c4ccc5c(n4)NC(=O)CO5)C(=O)O3)c2)n1 (mixture of isomers) [Example $135, 6-[(S)-5-(2-{3-[6-((2RS,3RS)-2-methyl-azetidin-3-yloxy)-pyridin-2-yl]-benzylamino}-ethyl)-2-oxo-oxazolidin-3-yl]-4H-pyrido[3,2-b][1,4]oxazin-3-one]	0.5	0.5	1	0.5
CCN1CCC(Oc2cccc(-c3cccc(CNCC[C@H]4CN(c5ccc6c(n5)NC(=O)CO6)C(=O)O4)c3)n2)C1 (mixture of isomers) [Example $126, 6-[(S)-5-(2-{3-[6-((RS)-1-ethyl-pyrrolidin-3-yloxy)-pyridin-2-yl]-benzylamino}-ethyl)-2-oxo-oxazolidin-3-yl]-4H-pyrido[3,2-b][1,4]oxazin-3-one]	0.5	1	2	2
CC(C)N1CCC(Oc2cccc(-c3cccc(CNCC[C@H]4CN(c5ccc6c(n5)NC(=O)CO6)C(=O)O4)c3)n2)C1 (mixture of isomers) [Example $134, 6-[(S)-5-(2-{3-[6-((RS)-1-isopropyl-pyrrolidin-3-yloxy)-pyridin-2-yl]-benzylamino}-ethyl)-2-oxo-oxazolidin-3-yl]-4H-pyrido[3,2-b][1,4]oxazin-3-one]	0.5	2	4	4
C[C@H]1[C@@H](Oc2cccc(-c3cccc(CNCC[C@H]4CN(c5ccc6c(n5)NC(=O)CO6)C(=O)O4)c3)n2)CCN1C (relative stereo) [Example $176, 6-[(S)-5-(2-{3-[6-((2S*,3S*)-1,2-dimethyl-pyrrolidin-3-yloxy)-pyridin-2-yl]-benzylamino}-ethyl)-2-oxo-oxazolidin-3-yl]-4H-pyrido[3,2-b][1,4]oxazin-3-one]	0.25 (≈ 0.448 µM)	2 (≈ 3.58 µM)	2 (≈ 3.58 µM)	2 (≈ 3.58 µM)
NCCOc1cccc(-c2cccc(CNCC[C@H]3CN(c4ccc5c(n4)NC(=O)CO5)C(=O)O3)c2)n1 [Example 8, 6-[(S)-5-(2-{3-[6-(2-amino-ethoxy)-pyridin-2-yl]-benzylamino}-ethyl)-2-oxo-oxazolidin-3-yl]-4H-pyrido[3,2-b][1,4]oxazin-3-one]	0.25 (≈ 0.495 µM)	0.5 (≈ 0.991 µM)	1 (≈ 1.98 µM)	0.25 (≈ 0.495 µM)
CC(CN)Oc1cccc(-c2cccc(CNCC[C@H]3CN(c4ccc5c(n4)NC(=O)CO5)C(=O)O3)c2)c1 (mixture of isomers) [Example 6, 6-((S)-5-(2-(((3′-(((RS)-1-aminopropan-2-yl)oxy)-[1,1′-biphenyl]-3-yl)methyl)amino)ethyl)-2-oxooxazolidin-3-yl)-2H-pyrido[3,2-b][1,4]oxazin-3(4H)-one]	4	4	4	4
O=C1COc2ccc(N3C[C@H](CCNCc4cccc(-c5cccc(O[C@@H]6CCNC6)n5)c4)OC3=O)nc2N1 [Example $118, 6-[(S)-2-oxo-5-(2-{3-[6-((R)-pyrrolidin-3-yloxy)-pyridin-2-yl]-benzylamino}-ethyl)-oxazolidin-3-yl]-4H-pyrido[3,2-b][1,4]oxazin-3-one]	2 (≈ 3.77 µM)	1 (≈ 1.88 µM)	2 (≈ 3.77 µM)	1 (≈ 1.88 µM)
O=C1COc2ccc(N3C[C@H](CCNCc4cccc(-c5cccc(OC[C@@H]6CCNC6)n5)c4)OC3=O)nc2N1 [Example $143, 6-[(S)-2-oxo-5-(2-{3-[6-((R)-1-pyrrolidin-3-ylmethoxy)-pyridin-2-yl]-benzylamino}-ethyl)-oxazolidin-3-yl]-4H-pyrido[3,2-b][1,4]oxazin-3-one]	2 (≈ 3.67 µM)	2 (≈ 3.67 µM)	4 (≈ 7.34 µM)	1 (≈ 1.84 µM)
CN1CC[C@H](Oc2cccc(-c3cncc(CNCC[C@H]4CN(c5ccc6c(n5)NC(=O)CO6)C(=O)O4)c3)n2)C1 [Example $138, 6-[(S)-5-(2-{[6-((S)-1-methyl-pyrrolidin-3-yloxy)-[2,3′]bipyridinyl-5′-ylmethyl]-amino}-ethyl)-2-oxo-oxazolidin-3-yl]-4H-pyrido[3,2-b][1,4]oxazin-3-one]	2 (≈ 3.67 µM)	1 (≈ 1.83 µM)	2 (≈ 3.67 µM)	2 (≈ 3.67 µM)
O=C1COc2ccc(N3C[C@H](CCNCc4cccc(-c5nccc(O[C@@H]6CCNC6)n5)c4)OC3=O)nc2N1 [Example $115, 6-[(S)-2-oxo-5-(2-{3-[4-((R)-pyrrolidin-3-yloxy)-pyrimidin-2-yl]-benzylamino}-ethyl)-oxazolidin-3-yl]-4H-pyrido[3,2-b][1,4]oxazin-3-one]	4 (≈ 7.52 µM)	4 (≈ 7.52 µM)	16 (≈ 30.1 µM)	2 (≈ 3.76 µM)
O=C1COc2ccc(N3C[C@H](CCNCc4cccc(-c5cccc(OC6CCNC6)c5)c4)OC3=O)nc2N1 (mixture of isomers) [Example $103, 6-[(S)-2-oxo-5-(2-{[3′-((RS)-pyrrolidin-3-yloxy)-biphenyl-3-ylmethyl]-amino}-ethyl)-oxazolidin-3-yl]-4H-pyrido[3,2-b][1,4]oxazin-3-one]	2	1	1	1
CN1CC(Oc2cncc(-c3cccc(CNCC[C@H]4CN(c5ccc6c(n5)NC(=O)CO6)C(=O)O4)n3)n2)C1 [Example $179, 6-{(S)-5-[2-({6-[6-(1-methyl-azetidin-3-yloxy)-pyrazin-2-yl]-pyridin-2-ylmethyl}-amino)-ethyl]-2-oxo-oxazolidin-3-yl}-4H-pyrido[3,2-b][1,4]oxazin-3-one]	0.5 (≈ 0.939 µM)	1 (≈ 1.88 µM)	1 (≈ 1.88 µM)	2 (≈ 3.76 µM)
CN1CC(Oc2cncc(-c3cncc(CNCC[C@H]4CN(c5ccc6c(n5)NC(=O)CO6)C(=O)O4)c3)n2)C1 [Example $190, 6-{(S)-5-[2-({5-[6-(1-methyl-azetidin-3-yloxy)-pyrazin-2-yl]-pyridin-3-ylmethyl}-amino)-ethyl]-2-oxo-oxazolidin-3-yl}-4H-pyrido[3,2-b][1,4]oxazin-3-one]	4 (≈ 7.51 µM)	2 (≈ 3.76 µM)	4 (≈ 7.51 µM)	4 (≈ 7.51 µM)
O=C1CSc2ccc(N3C[C@@H](CCNCc4cccc(-c5cccc(OC[C@@H]6CCN6)n5)c4)OC3=O)cc2N1 [Example $152, 6-[(R)-5-(2-{3-[6-((S)-1-azetidin-2-ylmethoxy)-pyridin-2-yl]-benzylamino}-ethyl)-2-oxo-oxazolidin-3-yl]-4H-benzo[1,4]thiazin-3-one]	4 (≈ 7.33 µM)	2 (≈ 3.67 µM)	4 (≈ 7.33 µM)	1 (≈ 1.83 µM)
C[C@H](N)COc1cccc(-c2cccc(CNCC[C@H]3CN(c4ccc5c(n4)NC(=O)CO5)C(=O)O3)c2)n1 [Example 18, 6-[(S)-5-(2-{3-[6-((S)-2-amino-propoxy)-pyridin-2-yl]-benzylamino}-ethyl)-2-oxo-oxazolidin-3-yl]-4H-pyrido[3,2-b][1,4]oxazin-3-one]	0.5 (≈ 0.964 µM)	1 (≈ 1.93 µM)	2 (≈ 3.86 µM)	1 (≈ 1.93 µM)
